Measurements taken from PubChem BioAssay AID1407 (Johns Hopkins Ion Channel Center, 2008).

Target: Potassium voltage-gated channel subfamily KQT member 2 (Rattus norvegicus) (UniProt O88943)
Test: PubChem AID 1407
Conditions: KCNQ2-expressing cells, rubidium efflux, at 10 µM, stronger effect = higher value

Sequence of Potassium voltage-gated channel subfamily KQT member 2 (Rattus norvegicus) (O88943 whole entry, looked up): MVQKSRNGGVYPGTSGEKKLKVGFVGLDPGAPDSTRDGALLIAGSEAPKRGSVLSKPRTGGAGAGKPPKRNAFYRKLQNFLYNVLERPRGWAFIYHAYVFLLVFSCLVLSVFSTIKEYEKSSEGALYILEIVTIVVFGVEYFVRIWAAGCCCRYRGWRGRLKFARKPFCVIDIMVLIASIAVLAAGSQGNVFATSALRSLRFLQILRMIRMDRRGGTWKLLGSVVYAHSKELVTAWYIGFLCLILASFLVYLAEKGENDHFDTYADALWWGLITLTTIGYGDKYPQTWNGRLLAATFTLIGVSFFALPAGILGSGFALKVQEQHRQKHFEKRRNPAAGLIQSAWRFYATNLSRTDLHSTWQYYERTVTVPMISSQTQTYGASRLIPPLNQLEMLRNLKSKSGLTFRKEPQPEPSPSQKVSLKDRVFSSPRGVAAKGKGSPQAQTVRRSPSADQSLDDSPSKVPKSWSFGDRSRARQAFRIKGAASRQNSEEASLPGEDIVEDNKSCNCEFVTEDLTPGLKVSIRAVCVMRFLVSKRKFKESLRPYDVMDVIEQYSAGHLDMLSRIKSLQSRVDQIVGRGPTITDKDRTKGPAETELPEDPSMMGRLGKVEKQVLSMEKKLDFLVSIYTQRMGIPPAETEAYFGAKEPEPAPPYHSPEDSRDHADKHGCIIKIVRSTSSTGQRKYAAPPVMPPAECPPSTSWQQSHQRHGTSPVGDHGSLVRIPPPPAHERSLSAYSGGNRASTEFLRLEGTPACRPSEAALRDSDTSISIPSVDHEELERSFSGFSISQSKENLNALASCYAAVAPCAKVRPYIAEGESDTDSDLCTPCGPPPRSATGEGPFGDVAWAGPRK

With `O[N+]1=CC=CCC1=S.On1ccccc1=S.[Zn]` the activity increase was 23.1% and the efflux (measured here: rubidium efflux percent) was 85.5%.
